According to patent publication US20120245137A1 (Zalicus Pharmaceuticals Ltd., priority 2009, published 2012):

Assays:
Format in all cases: cell-based
[1] = molecular target: human α1H T-type channels (Homo sapiens, UniProt O95180); assay: T-type calcium channel block, whole cell patch clamp, α1H; conditions: HEK cells stably expressing human α1H; mainly non-inactivated protocol; values above 10,000 nM represented as 10000
Procedure: (§1) T-type calcium channel blocking activity was assayed in human embryonic kidneycells, HEK 293 (Invitrogen), stably transfected with the T-type calcium channel subunits. Briefly, cells were cultured in Dulbecco's modified eagle medium (DMEM) supplemented with 10% fetal bovine serum, 200 U/ml penicillin, and 0.2 mg/mL streptomycin at 37° C. with 5% CO2. At 85% confluency, cells were split with 0.25% trypsin/1 mM EDTA and plated at 10% confluency on glass coverslips. At 12 hours, the medium was replaced, and the cells stably transfected using a standard calcium phosphate protocol and the appropriate calcium channel cDNA's. Fresh DMEM was supplied, and the cells transferred to 28° C./5% CO2.
(§2) Standard patch-clamp techniques were employed to identify blockers of T-type currents. Briefly, previously described HEK cell lines stably expressing human α1G, α1H, and α1I T-type channels were used for all the recordings (passage #: 4-20, 37° C., 5% CO2). Whole cell patch clamp experiments were performed using an Axopatch 200B amplifier (Axon Instruments, Burlingame, Calif.) linked to a personal computer equipped with pCLAMP software. Data were analyzed using Clampfit (Axon Instruments) and SigmaPlot 4.0 (Jandel Scientific). To obtain T-type currents, plastic dishes containing semi-confluent cells were positioned on the stage of a ZEISS AXIOVERT S100 microscope after replacing the culture medium with external solution (Table 2). Whole-cell patches were obtained using pipettes (borosilicate glass with filament, O.D.: 1.5 mm, I.D.: 0.86 mm, 10 cm length), fabricated on a SUTTER P-97 puller with resistance values of ˜5 MΩ (Table 3).
(§3) T-type currents were reliably obtained by using two voltage protocols: • “non-inactivating,” and • “inactivation.”
(§4) Test compounds were dissolved in external solution, 0.1-0.01% DMSO. After ˜10 minutes rest, they were applied by gravity close to the cell using a WPI microfil tubing. The “non-inactivated” pre-pulse was used to examine the resting block of a compound. The “inactivated” protocol was employed to study voltage-dependent block.

[2] = molecular target: human α1G T-type channels (Homo sapiens, UniProt O43497); assay: T-type calcium channel block, whole cell patch clamp, α1G; conditions: HEK cells stably expressing human α1G; mainly non-inactivated protocol; values above 10,000 nM represented as 10000
Procedure: as §1, §2, §3, §4

[3] = molecular target: N-type calcium channel subunits (α1B, α2δ, and β3a) (Homo sapiens, UniProt Q00975); assay: Block of Cav2.2 channel, whole cell voltage clamp, manual and PatchXpress; conditions: Table 5; table follows Assay Example 3 (whole cell voltage clamp / PatchXpress); assay not given
Method in brief: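 Percent block taken as current amplitude ratio with versus without compound, applied in rising doses; IC50 fitted where one cell received multiple doses. Protocol: 50 ms pulses to +20 mV at 0.067 Hz from […] or −90 mV holding; P/n leak subtraction, no junction-potential correction; manual and PatchXpress recordings.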

human α1G T-type channels, sequence (O43497 whole entry): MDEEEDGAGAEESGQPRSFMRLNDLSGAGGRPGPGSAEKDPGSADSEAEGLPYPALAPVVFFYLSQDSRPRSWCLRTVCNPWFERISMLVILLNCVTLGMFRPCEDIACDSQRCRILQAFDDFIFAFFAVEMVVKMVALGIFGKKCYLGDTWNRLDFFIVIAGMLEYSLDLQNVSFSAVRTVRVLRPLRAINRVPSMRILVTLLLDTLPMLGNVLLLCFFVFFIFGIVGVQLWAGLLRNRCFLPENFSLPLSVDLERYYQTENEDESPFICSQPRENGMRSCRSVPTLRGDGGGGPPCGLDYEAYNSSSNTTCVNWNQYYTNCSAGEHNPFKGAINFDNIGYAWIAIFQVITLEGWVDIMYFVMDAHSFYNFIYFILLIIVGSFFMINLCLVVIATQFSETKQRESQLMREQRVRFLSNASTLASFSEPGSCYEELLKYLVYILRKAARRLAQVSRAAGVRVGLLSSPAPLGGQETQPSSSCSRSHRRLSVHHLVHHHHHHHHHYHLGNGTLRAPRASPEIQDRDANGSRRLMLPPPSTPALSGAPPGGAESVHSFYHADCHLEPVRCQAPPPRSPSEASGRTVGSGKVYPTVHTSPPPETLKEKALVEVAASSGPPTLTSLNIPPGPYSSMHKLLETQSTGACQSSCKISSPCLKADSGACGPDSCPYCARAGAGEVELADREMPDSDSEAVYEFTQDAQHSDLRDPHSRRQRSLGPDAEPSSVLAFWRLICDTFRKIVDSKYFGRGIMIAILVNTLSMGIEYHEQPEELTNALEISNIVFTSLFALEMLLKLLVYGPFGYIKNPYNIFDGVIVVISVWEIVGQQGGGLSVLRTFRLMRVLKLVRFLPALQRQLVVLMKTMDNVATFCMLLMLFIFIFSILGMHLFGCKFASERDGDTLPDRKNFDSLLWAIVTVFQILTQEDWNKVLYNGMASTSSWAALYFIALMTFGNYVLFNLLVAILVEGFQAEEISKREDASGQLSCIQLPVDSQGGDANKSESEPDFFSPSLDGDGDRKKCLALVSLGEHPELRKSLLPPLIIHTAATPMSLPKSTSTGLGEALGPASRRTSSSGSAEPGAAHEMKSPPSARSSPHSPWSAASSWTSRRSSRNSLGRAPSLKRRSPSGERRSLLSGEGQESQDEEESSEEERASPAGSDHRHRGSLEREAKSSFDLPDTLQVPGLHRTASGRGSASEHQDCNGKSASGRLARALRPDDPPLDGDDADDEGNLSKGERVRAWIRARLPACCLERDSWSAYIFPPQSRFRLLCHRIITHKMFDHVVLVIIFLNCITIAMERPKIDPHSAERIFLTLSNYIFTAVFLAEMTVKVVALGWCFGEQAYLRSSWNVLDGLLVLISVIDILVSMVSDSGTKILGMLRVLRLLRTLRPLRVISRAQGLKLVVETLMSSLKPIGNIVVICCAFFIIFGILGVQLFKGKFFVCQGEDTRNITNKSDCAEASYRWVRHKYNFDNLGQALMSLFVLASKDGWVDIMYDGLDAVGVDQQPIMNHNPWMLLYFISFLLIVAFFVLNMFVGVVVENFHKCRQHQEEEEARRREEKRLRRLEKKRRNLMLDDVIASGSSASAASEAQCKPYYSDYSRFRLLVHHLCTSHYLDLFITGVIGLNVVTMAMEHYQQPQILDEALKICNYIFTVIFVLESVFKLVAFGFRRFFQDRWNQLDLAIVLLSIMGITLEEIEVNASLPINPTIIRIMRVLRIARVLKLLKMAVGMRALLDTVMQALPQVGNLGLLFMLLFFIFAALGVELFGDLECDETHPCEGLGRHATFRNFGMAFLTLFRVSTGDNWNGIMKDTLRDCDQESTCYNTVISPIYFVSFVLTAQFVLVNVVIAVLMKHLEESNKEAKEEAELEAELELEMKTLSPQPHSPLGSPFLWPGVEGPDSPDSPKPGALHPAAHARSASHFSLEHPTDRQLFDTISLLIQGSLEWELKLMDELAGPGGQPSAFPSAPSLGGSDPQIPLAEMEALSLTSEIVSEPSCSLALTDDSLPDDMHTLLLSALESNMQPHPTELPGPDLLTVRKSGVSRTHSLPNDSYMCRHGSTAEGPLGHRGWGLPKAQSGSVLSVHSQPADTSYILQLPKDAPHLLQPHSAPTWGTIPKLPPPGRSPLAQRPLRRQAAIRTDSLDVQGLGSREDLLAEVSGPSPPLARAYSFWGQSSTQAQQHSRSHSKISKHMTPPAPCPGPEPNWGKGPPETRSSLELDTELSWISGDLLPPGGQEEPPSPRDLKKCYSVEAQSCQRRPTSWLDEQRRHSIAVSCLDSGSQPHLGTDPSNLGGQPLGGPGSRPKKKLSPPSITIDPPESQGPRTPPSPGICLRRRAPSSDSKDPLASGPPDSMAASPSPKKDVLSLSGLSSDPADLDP
human α1H T-type channels, sequence (O95180 whole entry): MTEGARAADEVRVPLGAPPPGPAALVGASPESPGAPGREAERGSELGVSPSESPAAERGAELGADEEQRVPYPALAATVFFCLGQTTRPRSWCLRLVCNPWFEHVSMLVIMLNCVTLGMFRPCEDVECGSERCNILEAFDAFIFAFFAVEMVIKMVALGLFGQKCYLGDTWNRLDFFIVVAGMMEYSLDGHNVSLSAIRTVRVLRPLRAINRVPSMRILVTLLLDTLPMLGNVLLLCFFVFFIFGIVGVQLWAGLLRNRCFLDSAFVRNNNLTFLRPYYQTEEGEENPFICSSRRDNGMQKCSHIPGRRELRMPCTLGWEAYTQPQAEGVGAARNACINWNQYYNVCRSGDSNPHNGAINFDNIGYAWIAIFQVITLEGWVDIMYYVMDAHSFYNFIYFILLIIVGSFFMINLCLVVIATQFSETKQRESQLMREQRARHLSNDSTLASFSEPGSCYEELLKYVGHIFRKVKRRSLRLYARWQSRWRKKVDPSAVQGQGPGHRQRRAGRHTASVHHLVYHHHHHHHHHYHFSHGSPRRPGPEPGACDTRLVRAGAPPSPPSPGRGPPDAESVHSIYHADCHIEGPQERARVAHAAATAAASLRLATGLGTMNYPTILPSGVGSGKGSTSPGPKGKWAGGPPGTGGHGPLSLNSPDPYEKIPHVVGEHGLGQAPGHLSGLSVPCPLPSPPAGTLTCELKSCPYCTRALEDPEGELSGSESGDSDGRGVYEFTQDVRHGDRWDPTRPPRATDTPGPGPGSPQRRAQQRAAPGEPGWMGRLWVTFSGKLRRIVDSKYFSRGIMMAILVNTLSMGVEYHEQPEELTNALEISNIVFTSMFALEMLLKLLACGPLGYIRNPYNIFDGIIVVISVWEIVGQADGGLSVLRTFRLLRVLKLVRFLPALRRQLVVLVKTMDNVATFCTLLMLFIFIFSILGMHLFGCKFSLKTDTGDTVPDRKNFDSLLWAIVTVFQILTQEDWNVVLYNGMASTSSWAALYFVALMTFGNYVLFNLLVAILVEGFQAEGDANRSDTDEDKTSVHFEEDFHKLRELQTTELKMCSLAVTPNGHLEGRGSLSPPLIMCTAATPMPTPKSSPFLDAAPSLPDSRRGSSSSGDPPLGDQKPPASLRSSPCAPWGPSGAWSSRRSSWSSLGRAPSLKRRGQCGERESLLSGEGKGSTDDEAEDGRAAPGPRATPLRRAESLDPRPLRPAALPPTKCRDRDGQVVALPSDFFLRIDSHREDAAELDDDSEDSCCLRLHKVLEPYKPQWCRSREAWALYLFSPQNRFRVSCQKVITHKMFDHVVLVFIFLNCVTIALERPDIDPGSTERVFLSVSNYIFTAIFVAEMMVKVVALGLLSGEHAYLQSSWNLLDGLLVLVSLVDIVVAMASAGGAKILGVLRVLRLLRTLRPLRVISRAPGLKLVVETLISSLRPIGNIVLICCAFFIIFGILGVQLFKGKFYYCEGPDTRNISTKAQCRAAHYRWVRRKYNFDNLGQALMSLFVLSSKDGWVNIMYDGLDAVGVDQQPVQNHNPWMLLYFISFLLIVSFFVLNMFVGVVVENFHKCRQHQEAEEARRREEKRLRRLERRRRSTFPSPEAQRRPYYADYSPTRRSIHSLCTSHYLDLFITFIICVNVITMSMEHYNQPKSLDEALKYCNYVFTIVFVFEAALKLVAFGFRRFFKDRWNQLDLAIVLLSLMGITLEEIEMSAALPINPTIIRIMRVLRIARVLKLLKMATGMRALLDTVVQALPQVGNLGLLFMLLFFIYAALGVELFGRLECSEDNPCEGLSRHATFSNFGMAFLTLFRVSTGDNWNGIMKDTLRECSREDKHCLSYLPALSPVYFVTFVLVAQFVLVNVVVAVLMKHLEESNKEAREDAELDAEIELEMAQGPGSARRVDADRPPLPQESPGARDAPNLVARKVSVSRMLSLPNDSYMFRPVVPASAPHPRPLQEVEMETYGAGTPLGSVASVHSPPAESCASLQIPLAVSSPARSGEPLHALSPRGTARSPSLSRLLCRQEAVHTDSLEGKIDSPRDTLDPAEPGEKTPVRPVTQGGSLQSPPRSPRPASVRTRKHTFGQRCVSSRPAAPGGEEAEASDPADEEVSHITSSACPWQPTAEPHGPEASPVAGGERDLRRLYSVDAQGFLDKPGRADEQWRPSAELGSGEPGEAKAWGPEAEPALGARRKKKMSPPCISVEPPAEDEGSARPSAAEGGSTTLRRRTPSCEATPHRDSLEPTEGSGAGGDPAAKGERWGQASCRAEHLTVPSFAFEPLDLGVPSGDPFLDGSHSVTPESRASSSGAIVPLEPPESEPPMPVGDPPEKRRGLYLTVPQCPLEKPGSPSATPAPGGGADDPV

IC50 [1] [nM]	IC50 [2] [nM]	IC50 [3] [nM]	Molecule
3310	210	–	CC(C)(C(=O)Nc1ccc(Oc2ccccc2)cc1)S(=O)(=O)c1cccc(C(F)(F)F)c1 [Compound 487, 2-methyl-N-(4-phenoxyphenyl)-2-(3-(trifluoromethyl)phenylsulfonyl)propanamide]
> 10000	610	–	CC(C)(C)NC(=O)CNCCC(C)(C)S(=O)(=O)c1cccc(C(F)(F)F)c1 [Compound 471, N-tert-butyl-2-(3-methyl-3-(3-(trifluoromethyl)phenylsulfonyl)butylamino) acetamide]
9810	570	–	CN(CCc1ccc(F)cc1)C(=O)C(C)(C)S(=O)(=O)c1cccc(C(F)(F)F)c1 [Compound 452, N-(4-fluorophenethyl)-N,2-dimethyl-2-(3-(trifluoromethyl)phenylsulfonyl)propanamide]
> 10000	560	–	CC(C)(CCS(=O)(=O)c1ccc(Cl)cc1)S(=O)(=O)c1cccc(C(F)(F)F)c1 [Compound 462, 1-(4-(4-chlorophenylsulfonyl)-2-methylbutan-2-ylsulfonyl)-3-(trifluoromethyl)benzene]
> 10000	620	–	CN(CCC(C)(C)S(=O)(=O)c1cccc(C(F)(F)F)c1)CC(=O)NC(C)(C)C [Compound 516, N-tert-butyl-2-(methyl(3-methyl-3-(3-(trifluoromethyl)phenylsulfonyl)butyl)amino)acetamide]
3850	900	–	CC(C)(CNC(=O)c1ccc(OCC(F)(F)F)nc1)S(=O)(=O)c1cccc(C(F)(F)F)c1 [Compound 483, N-(2-methyl-2-(3-(trifluoromethyl)phenylsulfonyl)propyl)-6-(2,2,2-trifluoroethoxy) nicotinamide]
> 10000	–	1920	Cn1nc(C(F)(F)F)cc1C(=O)N[C@H]1CC[C@@H](S(=O)(=O)c2cc(F)cc(C(F)(F)F)c2)CC1 [Compound 321, N-((1S,4S)-4-(3-fluoro-5-(trifluoromethyl)phenylsulfonyl)cyclohexyl)-1-methyl-3-(trifluoromethyl)-1Hpyrazole-5-carboxamide]
> 10000	–	640	CC1(S(=O)(=O)c2cccc(C(F)(F)F)c2)CCC(NC(=O)c2ccc(C(F)(F)F)cn2)CC1 (stereo not shown) [Compound 3, N-(4-methyl-4-(3-(trifluoromethyl)phenylsulfonyl)cyclohexyl)-5-(trifluoromethyl) picolinamide]
> 10000	–	1470	COc1cc(C(=O)NC[C@H]2C[C@@H](S(=O)(=O)c3cccc(C(F)(F)F)c3)C2)cc(Cl)n1 [Compound 380, 2-chloro-6-methoxy-N-(((1S,3S)-3-(3-(trifluoromethyl)phenylsulfonyl)cyclobutyl)methyl)isonicotinamide]
> 10000	–	590	O=C(NC[C@H]1C[C@@H](S(=O)(=O)c2cccc(C(F)(F)F)c2)C1)c1cc(F)cc(Cl)c1 [Compound 381, 3-chloro-5-fluoro-N-(((1S,3S)-3-(3-(trifluoromethyl)phenylsulfonyl)cyclobutyl)methyl)benzamide]
> 10000	–	310	COc1cc(C(=O)NC[C@H]2C[C@H](S(=O)(=O)c3cccc(C(F)(F)F)c3)C2)cc(Cl)n1 [Compound 363, 2-chloro-6-methoxy-N-(((1R,3R)-3-(3-(trifluoromethyl)phenylsulfonyl)cyclobutyl)methyl)isonicotinamide]
> 10000	–	130	CC(C)(C(=O)N[C@H]1CC[C@@](F)(S(=O)(=O)c2cc(F)cc(C(F)(F)F)c2)CC1)S(=O)(=O)c1cccc(C(F)(F)F)c1 [Compound 292, N-((1S,4S)-4-fluoro-4-(3-fluoro-5-(trifluoromethyl)phenylsulfonyl)cyclohexyl)-2-methyl-2-(3-(trifluoromethyl)phenylsulfonyl) propanamide]
> 10000	–	1290	Cn1cc(C(=O)N[C@H]2CC[C@@H](S(=O)(=O)c3cccc(C(F)(F)F)c3)CC2)c(C(F)(F)F)n1 [Compound 45, 1-methyl-3-(trifluoromethyl)-N-((1S,4S)-4-(3-(trifluoromethyl)phenylsulfonyl)cyclohexyl)-1H-pyrazole-4-carboxamide]
> 10000	–	960	O=C(CN[C@H]1C[C@H](S(=O)(=O)c2cccc(C(F)(F)F)c2)C1)NC1CCC(F)(F)CC1 [Compound 428, N-(4,4-ditluorocyclohexyl)-2-((1R,3R)-3-(3-(trifluoromethyl)phenylsulfonyl)cyclobutylamino) acetamide]

Continued, molecule first:

Molecule	IC50 [1] [nM]	IC50 [2] [nM]	IC50 [3] [nM]
O=C(N[C@H]1CC[C@H](CS(=O)(=O)c2cccc(C(F)(F)F)c2)CC1)C1CCOCC1 [Compound 105, N-((1R,4R)-4-((3-(trifluoromethyl)phenylsulfonyl)methyl)cyclohexyl)tetrahydro-2H-pyran-4-carboxamide]	2480	> 10000	–
CC(C)(CNC(=O)c1ccc(C(F)(F)F)cc1S(C)(=O)=O)S(=O)(=O)c1cccc(C(F)(F)F)c1 [Compound 474, N-(2-methyl-2-(3-(trifluoromethyl)phenylsulfonyl)propyl)-2-(methylsulfonyl)-4-(tritluoromethyl)benzamide]	> 10000	560	–
CC(C)(CNC(=O)c1ccc(Cl)cc1Cl)S(=O)(=O)c1cccc(C(F)(F)F)c1 [Compound 480, 2,4-dichloro-N-(2-methyl-2-(3-(trifluoromethyl)phenylsulfonyl)propyl) benzamide]	5440	720	–
CC(C)(C(=O)Nc1nc2ccc(Cl)cc2s1)S(=O)(=O)c1cccc(C(F)(F)F)c1 [Compound 449, N-(6-chlorobenzo[d]thiazol-2-yl)-2-methyl-2-(3-(trifluoromethyl)phenylsulfonyl)propanamide]	550	450	–
CC1(S(=O)(=O)c2cccc(C(F)(F)F)c2)CCC(NC(=O)CCC(F)(F)F)CC1 (stereo not shown) [Compound 5, 4,4,4-trifluoro-N-(4-methyl-4-(3-(trifluoromethyl)phenylsulfonyl)cyclohexyl)butanamide]	> 10000	–	380
CC1(NC(=O)c2ccc(OC(F)(F)F)cc2)CCC(S(=O)(=O)c2cccc(C(F)(F)F)c2)CC1 (stereo not shown) [Compound 315, N-(1-methyl-4-(3-(trifluoromethyl)phenylsulfonyl)cyclohexyl)-4-(trifluoromethoxy)benzamide]	> 10000	–	1230
O=C(CN[C@H]1CC[C@H](CS(=O)(=O)c2cccc(C(F)(F)F)c2)CC1)Nc1ccccn1 [Compound 120, N-(pyridin-2-yl)-2-((1R,4R)-4-((3-(trifluoromethyl)phenylsulfonyl)methyl)cyclohexylamino)acetamide]	> 10000	–	580
6-fluoro-N-((1R,4R)-4-((3- (trifluoromethyl)phenylsulfonyl) methyl)cyclohexyl)-1H- benzo[d]imidazole-2-carboxamide [Compound 110]	> 10000	–	6020
CC([C@H]1C[C@H](NC(=O)c2ccc(F)c(C(F)(F)F)c2)C1)S(=O)(=O)c1cccc(C(F)(F)F)c1 (stereo partly drawn) [Compound 433, 4-fluoro-3-(trifluoromethyl)-N-((1R,3R)-3-((R)-1-(3-(trifluoromethyl)phenylsulfonyl)ethyl)cyclobutyl)benzamide]	> 10000	–	220
O=C(CN[C@H]1CC[C@H](S(=O)(=O)c2cccc(C(F)(F)F)c2)CC1)NCC(F)(F)F [Compound 68, N-(2,2,2-trifluoroethyl)-2-((1R,4R)-4-(3-(trifluoromethyl)phenylsulfonyl)cyclohexylamino)acetamide]	> 10000	–	1720
O=C(N[C@H]1CC[C@@](F)(S(=O)(=O)c2cc(F)cc(C(F)(F)F)c2)CC1)c1cc(F)cc(Cl)c1 [Compound 326, 3-chloro-5-fluoro-N-((1S,4S)-4-fluoro-4-(3-fluoro-5-(trifluoromethyl)phenylsulfonyl)cyclohexyl) benzamide]	1480	–	330
CC(C)(C)S(=O)(=O)c1ccsc1C(=O)N[C@H]1CC[C@H](CS(=O)(=O)c2cccc(C(F)(F)F)c2)CC1 [Compound 178, 3-(tert-butylsulfonyl)-N-((1R.4R)-4-((3-(trifluoromethyl)phenylsulfonyl)methyl)cyclohexyl)thiophene-2-carboxamide]	> 10000	–	250
